Laboratory results as given in patent US9932637B2, “Genetic polymorphisms associated with cardiovascular disorders and drug response, methods of detection and uses thereof” (CELERA CORPORATION, priority 2003, dated 2018).

Tested on: patients with prior myocardial infarction (CARE study)
Experiment: CARE: association of SNPs with pravastatin treatment in RMI prevention (genotypic RR in placebo and statin strata; Table 10)
Type: in vivo, human
Description: In order to identify genetic markers associated with acute coronary events (e.g. MI, stroke, unstable angina, congestive heart failure, etc.) or response to statin treatment for the prevention of coronary events, samples from the Cholesterol and Recurrent Events (CARE) study (a randomized multicentral double-blinded trial on secondary prevention of acute coronary events with pravastatin) (Sacks et al., 1991, Am. J. Cardiol. 68: 1436-1446) were genotyped. A well-documented myocardial infarction (MI) was one of the enrollment criteria for entry into the CARE study. Patients were enrolled in the CARE trial from 80 participating study centers. […] Patients were randomized to receive either 40 mg of pravastatin once daily or a matching placebo. The primary endpoint of the trial was death from coronary heart disease and the median duration of follow-up was 5.0 years (range, 4.0 to 6.2 years). […] Secondary endpoints of other related cardiovascular or metabolic disease events, and changes in clinical variables were also recorded in pravastatin-treated and placebo groups. All individuals included in the study had signed a written informed consent form and the study protocol was approved by the respective Institutional Review Boards (IRBs).
For genotyping SNPs in CARE patient samples, DNA was extracted from blood samples using conventional DNA extraction methods such as the QIA-amp kit from Qiagen. Genotypes were obtained on an ABI PRISM® 7900HT Sequence Detection PCR system (Applied Biosystems, Foster City, Calif.) by kinetic allele-specific PCR, similar to the method described by Germer et al. (Germer S., Holland M. J., Higuchi R. 2000, Genome Res. 10: 258-266).
For statistical analysis of association of SNPs with pravastatin treatment in RMI prevention (Table 10), effect sizes were estimated through genotypic RR, including 95% CIs. Homogeneity of Cochran-Mantel-Haenszel odds ratios was tested across pravastatin and placebo strata using the Wald test. […] (this adjustment supports independence of the SNP association from conventional risk factors). This table also provides the frequency data for the at risk allele in the columns labeled “Case Y PRIMER ALLELE Nucleotide Frequency” and “Control Y PRIMER ALLELE Nucleotide Frequency”. Allele frequencies for the cases and controls ≤0.49 indicate that the at-risk allele is the minor allele. Allele frequencies ≥0.50 indicate that the at-risk allele is the major allele. An example of a SNP associated with increased risk for an adverse cardiovascular event in the placebo group using a dominant genotypic test is hCV25644901. […] However, this same SNP was protective in the statin treated group with a RR of 0.58. An example of a SNP associated with an adverse cardiovascular event in the placebo group using the allelic association test is hCV16044337 with a RR of 1.87 for the homozygous AA genotype. This same genotype was protective in the statin treated group with a RR of 0.56.

With `CC[C@H](C)C(=O)O[C@H]1C[C@H](O)C=C2C=C[C@H](C)[C@H](CC[C@@H](O)C[C@@H](O)CC(=O)O)[C@H]21` [pravastatin] the “RR (relative risk for RMI)” value (ABCA1 hCV2741051, Het(TC) stratum, Statin vs Placebo) was 0.92, the “RR (relative risk for RMI)” value (ABCA1 hCV2741051, Maj Hom(CC) stratum, Statin vs Placebo) was 0.59 and the “RR (relative risk for RMI)” value (ABCA1 hCV2741051, Min Hom(TT) stratum, Statin vs Placebo) was 1.25. The “RR (relative risk for RMI)” value (ABCA1 hCV2741051, Statin stratum, het(TC) vs. ref(CC)) was 1.09, the “RR (relative risk for RMI)” value (ABCA1 hCV2741051, Statin stratum, hom(TT) vs. ref(CC)) was 1.14 and the “RR (relative risk for RMI)” value (ABCA1 hCV2741083, Het(TC) stratum, Statin vs Placebo, covars none) was 1.51. The “RR (relative risk for RMI)” value (ABCA1 hCV2741083, Maj Hom(TT) stratum, Statin vs Placebo, covars none) was 0.61, the “RR (relative risk for RMI)” value (ABCA1 hCV2741083, Min Hom(CC) stratum, Statin vs Placebo, covars none) was 1.36 and the “RR (relative risk for RMI)” value (ABCA1 hCV2741083, Statin stratum, het(TC)vs. ref(TT), covars none) was 1.29. The “RR (relative risk for RMI)” value (ABCA1 hCV2741083, Statin stratum, hom (CC)vs. ref(TT), covars none) was 1.00, the “RR (relative risk for RMI)” value (ATF6 hCV25631989, Het (TC) stratum, Statin vs Placebo) was 2.43 and the “RR (relative risk for RMI)” value (ATF6 hCV25631989, Maj Hom (CC) stratum, Statin vs Placebo) was 0.66. For the same molecule, the “RR (relative risk for RMI)” value (ATF6 hCV25631989, Statin stratum, het(TC) vs. ref (CC)) was 1.53, the “RR (relative risk for RMI)” value (CYBA hCV2038, Het(AG) stratum, Statin vs Placebo, covars hx_smoke) was 0.74 and the “RR (relative risk for RMI)” value (CYBA hCV2038, Maj Hom(GG) stratum, Statin vs Placebo, covars hx_smoke) was 0.55. For the same molecule, the “RR (relative risk for RMI)” value (CYBA hCV2038, Min Hom(AA) stratum, Statin vs Placebo, covars hx_smoke) was 1.38, the “RR (relative risk for RMI)” value (CYBA hCV2038, Statin stratum, het(AG) vs. ref(GG), covars hx_smoke) was 1.40 and the “RR (relative risk for RMI)” value (CYBA hCV2038, Statin stratum, hom(AA) vs. ref(GG), covars hx_smoke) was 2.02. The “RR (relative risk for RMI)” value (EDG3 hCV25610470, Het(GA) stratum, Statin vs Placebo, covars HX_SMOKE) was 0.22, the “RR (relative risk for RMI)” value (EDG3 hCV25610470, Maj Hom(GG) stratum, Statin vs Placebo, covars HX_SMOKE) was 0.77 and the “RR (relative risk for RMI)” value (EDG3 hCV25610470, Min Hom(AA) stratum, Statin vs Placebo, covars HX_SMOKE) was 1.10. The “RR (relative risk for RMI)” value (EDG3 hCV25610470, Statin stratum, het(GA) vs. ref(GG), covars HX_SMOKE) was 0.37, the “RR (relative risk for RMI)” value (F7 hCV783184, Het(TG) stratum, Statin vs Placebo) was 1.10 and the “RR (relative risk for RMI)” value (F7 hCV783184, Maj Hom(GG) stratum, Statin vs Placebo) was 0.64. For the same molecule, the “RR (relative risk for RMI)” value (F7 hCV783184, Min Hom(TT) stratum, Statin vs Placebo) was 2.59, the “RR (relative risk for RMI)” value (F7 hCV783184, Statin stratum, het (TG) vs. ref(GG)) was 1.28 and the “RR (relative risk for RMI)” value (F7 hCV783184, Statin stratum, hom(TT) vs. ref(GG)) was 1.65. The “RR (relative risk for RMI)” value (FCAR hCV7841642, Het(GA) stratum, Statin vs Placebo) was 0.32, the “RR (relative risk for RMI)” value (FCAR hCV7841642, Maj Hom(GG) stratum, Statin vs Placebo) was 0.82 and the “RR (relative risk for RMI)” value (FCAR hCV7841642, Min Hom(AA) stratum, Statin vs Placebo) was 1.33. The “RR (relative risk for RMI)” value (FCAR hCV7841642, Statin stratum, het(GA) vs. ref(GG)) was 0.60, the “RR (relative risk for RMI)” value (FCAR hCV7841642, Statin stratum, hom (AA)vs. ref(GG)) was 1.38 and the “RR (relative risk for RMI)” value (FN1 hCV9506149, Het(TA) stratum, Statin vs Placebo) was 0.90. The “RR (relative risk for RMI)” value (FN1 hCV9506149, Maj Hom(AA) stratum, Statin vs Placebo) was 0.58, the “RR (relative risk for RMI)” value (FN1 hCV9506149, Min Hom(TT) stratum, Statin vs Placebo) was 1.10 and the “RR (relative risk for RMI)” value (FN1 hCV9506149, Statin stratum, het(TA) vs. ref(AA)) was 1.15. For the same molecule, the “RR (relative risk for RMI)” value (FN1 hCV9506149, Statin stratum, hom(TT) vs. ref(AA)) was 1.72, the “RR (relative risk for RMI)” value (HLA-DPB1 hCV8851085, Het(GA) stratum, Statin vs Placebo, covars hx_smoke) was 0.87 and the “RR (relative risk for RMI)” value (HLA-DPB1 hCV8851085, Maj Hom(GG) stratum, Statin vs Placebo, covars hx_smoke) was 0.58. For the same molecule, the “RR (relative risk for RMI)” value (HLA-DPB1 hCV8851085, Min Hom(AA) stratum, Statin vs Placebo, covars hx_smoke) was 2.19, the “RR (relative risk for RMI)” value (HLA-DPB1 hCV8851085, Statin stratum, het (GA)vs. ref(GG), covars hx_smoke) was 1.40 and the “RR (relative risk for RMI)” value (HLA-DPB1 hCV8851085, Statin stratum, hom(AA) vs. ref(GG), covars hx_smoke) was 1.97. For the same molecule, the “RR (relative risk for RMI)” value (HSPG2 hCV1603656, Het(TC) stratum, Statin vs Placebo, covars hx_smoke) was 0.42, the “RR (relative risk for RMI)” value (HSPG2 hCV1603656, Maj Hom (CC) stratum, Statin vs Placebo, covars hx_smoke) was 0.80 and the “RR (relative risk for RMI)” value (HSPG2 hCV1603656, Statin stratum, het (TC)vs. ref(CC), covars hx_smoke) was 0.65. For the same molecule, the “RR (relative risk for RMI)” value (HSPG2 hCV1603692, Het(TC) stratum, Statin vs Placebo, covars none) was 0.37, the “RR (relative risk for RMI)” value (HSPG2 hCV1603692, Maj Hom (CC) stratum, Statin vs Placebo, covars none) was 0.79 and the “RR (relative risk for RMI)” value (HSPG2 hCV1603692, Statin stratum, het (TC)vs. ref(CC), covars none) was 0.65. For the same molecule, the “RR (relative risk for RMI)” value (HSPG2 hCV1603697, Het(TC) stratum, Statin vs Placebo, covars none) was 0.37, the “RR (relative risk for RMI)” value (HSPG2 hCV1603697, Maj Hom (CC) stratum, Statin vs Placebo, covars none) was 0.80 and the “RR (relative risk for RMI)” value (HSPG2 hCV1603697, Statin stratum, het (TC)vs. ref(CC), covars none) was 0.65.
